According to patent EP4752152A1, “STEROID COMPOUND, AND PREPARATION METHOD THEREFOR AND USE THEREOF” (Cholesgen (Shanghai) Co.Ltd., priority 2023, dated 2025):

System: SREBP pathway
Assay: SREBP luciferase reporter gene system (SRE-luciferase assay)
Type: cell-based, human
Conditions: Huh-7/SRE-luc cells, sterol-deficient medium, 0.01-10 µM
Protocol: Huh-7/SRE-luc cells were incubated in sterol-deficient medium (5% lipoprotein deficient serum, 2 µM lovastatin, 10 µM mevalonic acid) with corresponding concentrations of compounds for 16 hours. The Huh-7/SRE-luc cells were human hepatoma cell line Huh-7 stably expressing LDLR promotor-luciferase and green fluorescent protein (GFP). These cells were obtained by transfecting Huh-7 with pLDLR-promotor-luciferase and pEGFP-N1 plasmids, followed by screening under G418 antibiotic selection pressure. The Huh-7 cells were purchased from ATCC, the pLDLR-promotor-luciferase plasmid was obtained by molecular cloning methods, and the pEGFP-N1 plasmid was purchased from Addgene.
After compound treatment, the cells were lysed with lysis buffer (E397A, Promega). After the addition of luciferase substrate (E1500, Promega), the activity of SRE-driven luciferase was measured using a BioTek Synergy HTX microplate reader (including but not limited to this type of instrument). The fluorescence intensity of green fluorescent protein (EGFP) was also measured using the above BioTek microplate reader (including but not limited to this type of instrument) and served as an internal control. The ratio of SRE-driven luciferase activity divided by the fluorescence intensity of green fluorescent protein was used as an indicator of SREBP pathway activity. The test data for each test compound were analyzed using Prism software (with the DMSO-treated group as the reference to calculate the compound inhibition rate, fitted using the Prism log(inhibitor) vs. response--Variable slope (four-parameter) model, calculation formula: Y = Bottom + (Top - Bottom)/(1 + 10^((LogIC50 - X) × HillSlope))), to obtain the IC50 parameters of the compounds.
Using the method described in 1.1, the inhibitory effect of the compounds of the present disclosure on the SREBP pathway was tested. The concentration gradient for each compound was designed as 0.01, 0.03, 0.1, 0.3, 1.0, 3.0, and 10 µM, with the vehicle DMSO as the control.

## COc1cccc(F)c1C(O)CCCC(C)C1CCC2C3=C(F)CC4C(O)C(O)CCC4(C)C3CCC21C (single isomer, unassigned) [Compound 163]
Homo sapiens, Huh-7, 16 h
  IC50: 0.201 µM

## COc1cccc(F)c1C(O)CCCC(C)C1CCC2C3=C(F)CC4C(O)C(O)CCC4(C)C3CCC21C (single isomer, unassigned) [Compound 164]
16 hours
  IC50: 0.295 µM

## COc1ccc(F)c(C(O)CCC[C@@H](C)[C@H]2CC[C@H]3[C@H]4[C@H](CC[C@]23C)[C@@]2(C)CC[C@H](O)[C@H](O)[C@@H]2CC4(F)F)c1 (single isomer, unassigned) [Compound 166, (1R,3aS,3bS,5aR,5aR,6R,7S,9aR,9bS,11aR) -4,4-difluoro-1-[(2R,6S)-6-(2-fluoro-5-methoxyphenyl)-6-hydroxyhexan-2-yl]-9a,11a-dimethylhexadecahydro-1H-cyclopenta[1,2-a]phenanthrene-6,7-diol or (1R,3aS,3bS,5aR,6R,7S,9aR,9bS,11aR)-4,4-difluoro-1-[(2R,6R)-6-(2-fluoro-5-methoxyphenyl)-6-hydroxyhexan-2-yl]-9a,11a-dimethylhexadecahydro-1H-cyclopenta[1,2-a]phenanthrene-6,7-diol]
16 hours
  IC50: 0.138 µM

## COc1ccc(F)c(C(O)CCC[C@@H](C)[C@H]2CC[C@H]3[C@H]4[C@H](CC[C@]23C)[C@@]2(C)CC[C@H](O)[C@H](O)[C@@H]2CC4(F)F)c1 (single isomer, unassigned) [Compound 167, (1R,3aS,3bS,5aR,6R,7S,9aR,9bS,11aR)-4,4-difluoro-1-[(2R,6R)-6-(2-fluoro-5-methoxyphenyl)-6-hydroxyhexan-2-yl]-9a,11a-dimethylhexadecahydro-1H-cyclopenta[1,2-a]phenanthrene-6,7-diol or (1R,3aS,3bS,5aR,5aR,6R,7S,9aR,9bS,11aR) -4,4-difluoro-1-[(2R,6S)-6-(2-fluoro-5-methoxyphenyl)-6-hydroxyhexan-2-yl]-9a,11a-dimethylhexadecahydro-1H-cyclopenta[1,2-a]phenanthrene-6,7-diol]
16 hours
  IC50: 0.88 µM

## COc1ccnc(OC)c1C(O)CCC[C@@H](C)[C@H]1CC[C@H]2[C@H]3[C@H](CC[C@]12C)[C@@]1(C)CC[C@H](O)[C@H](O)[C@@H]1CC3(F)F (single isomer, unassigned) [Compound 172, (1R,3aS,3bS,5aR,6R,7S,9aR,9bS,11aR)-1-[(2R,6R)-6-(2,4-dimethoxypyridin-3-yl)-6-hydroxyhexan-2-yl]-4,4-difluoro-9a,11a-dimethylhexadecahydro-1H-cyclopenta[1,2-a]phenanthrene-6,7-diol or (1R,3aS,3bS,5aR,6R,7S,9aR,9bS,11aR)-1-[(2R,6S)-6-(2,4-dimethoxypyridin-3-yl)-6-hydroxyhexan-2-yl]-4,4-difluoro-9a,11a-dimethylhexadecahydro-1H-cyclopenta[1,2-a]phenanthrene-6,7-diol]
16 hours
  IC50: 0.113 µM

## C[C@H](CCCC(O)c1cccc(OC(F)(F)F)c1)[C@H]1CC[C@H]2[C@H]3[C@H](CC[C@]12C)[C@@]1(C)CC[C@H](O)[C@H](O)[C@@H]1CC3(F)F (single isomer, unassigned) [Compound 190, (1R,3aS,3bS,5aR,6R,7S,9aR,9bS,11aR)-4,4-difluoro-1-[(2R,6S)-6-hydroxy-6-{^3-[(trifluoromethyl)oxy]phenyl}hexan-2-yl]-9a,11a-dimethylhexadecahydro-1H-cyclopenta[1,2-a]phenanthrene-6,7-diol or (1R,3aS,3bS,5aR,6R,7S,9aR,9bS,11aR)-4,4-difluoro-1-[(2R,6R)-6-hydroxy-6-{3-[(trifluoromethyl)oxy]phenyl}hexan-2-yl]-9a,11a-dimethylhexadecahydro-1H-cyclopenta[1,2-a]phenanthrene-6,7-diol]
Homo sapiens, Huh-7, 16 h
  IC50: 0.355 µM

## COc1cc(F)cc(F)c1[C@@H](O)CCC[C@@H](C)[C@H]1CC[C@H]2C3=C(F)C[C@H]4[C@@H](O)[C@@H](O)CC[C@]4(C)[C@H]3CC[C@]12C (single isomer, unassigned) [Compound 202]
Homo sapiens, Huh-7, 16 h
  IC50: 0.411 µM

## COc1cc(F)cc(F)c1[C@H](O)CCC[C@@H](C)[C@H]1CC[C@H]2C3=C(F)C[C@H]4[C@@H](O)[C@@H](O)CC[C@]4(C)[C@H]3CC[C@]12C (single isomer, unassigned) [Compound 203]
Homo sapiens, Huh-7, 16 h
  IC50: 0.174 µM

## COc1cc(F)c(C(O)CCCC(C)C2CCC3C4C(CCC23C)C2(C)CCC(O)C(O)C2CC4(F)F)c(F)c1 (single isomer, unassigned) [Compound 204, (1R,3aS,3bS,5aR,6R,7S,9aR,9bS,11aR)-1-[(2R,6S)-6-(2,6-difluoro-4-methoxyphenyl)-6-hydroxyhexan-2-yl]-4,4-difluoro-9a,11a-dimethylhexadecahydro-1H-cyclopenta[1,2-a]phenanthrene-6,7-diol or (1R,3aS,3bS,5aR,6R,7S,9aR,9bS,11aR)-1-[(2R,6R)-6-(2,6-difluoro-4-methoxyphenyl)-6-hydroxyhexan-2-yl]-4,4-difluoro-9a,11a-dimethylhexadecahydro-1H-cyclopenta[1,2-a]phenanthrene-6,7-diol]
Homo sapiens, Huh-7, 16 h
  IC50: 0.145 µM

## COc1cc(F)c(C(O)CCC[C@@H](C)[C@H]2CC[C@H]3[C@H]4[C@H](CC[C@]23C)[C@@]2(C)CC[C@H](O)[C@H](O)[C@@H]2CC4(F)F)c(F)c1 (single isomer, unassigned) [Compound 205, (1R,3aS,3bS,5aR,6R,7S,9aR,9bS,11aR)-1-[(2R,6R)-6-(2,6-difluoro-4-methoxyphenyl)-6-hydroxyhexan-2-yl]-4,4-difluoro-9a,11a-dimethylhexadecahydro-1H-cyclopenta[1,2-a]phenanthrene-6,7-diol or (1R,3aS,3bS,5aR,6R,7S,9aR,9bS,11aR)-1-[(2R,6S)-6-(2,6-difluoro-4-methoxyphenyl)-6-hydroxyhexan-2-yl]-4,4-difluoro-9a,11a-dimethylhexadecahydro-1H-cyclopenta[1,2-a]phenanthrene-6,7-diol]
Homo sapiens, Huh-7, 16 h
  IC50: 0.107 µM

## COc1cccc(F)c1C(CCC[C@@H](C)[C@H]1CC[C@H]2[C@H]3[C@H](CC[C@]12C)[C@@]1(C)CC[C@H](O)[C@H](O)[C@@H]1CC3(F)F)=NO (single isomer, unassigned) [Compound 211, [(1Z,5R)-5-[(1R,3aS,3bS,5aR,6R,7S,9aS,9bS,11aR)-4,4-difluoro-6,7-dihydroxy-9a,9b,11a-trimethylhexadecahydro-1H-cyclopenta[1,2-a]phenanthren-1-yl]-1-(2-fluoro-6-methoxyphenyl)hexylidene]hydroxylamine or [(1E,5R)-5-[(1R,3aS,3bS,5aR,6R,7S,9aR,9bS,11aR)-4,4-difluoro-6,7-dihydroxy-9a,11a-dimethylhexadecahydro-1H-cyclopenta[1,2-a]phenanthren-1-yl]-1-(2-fluoro-6-methoxyphenyl)hexylidene]hydroxylamine]
Homo sapiens, Huh-7, 16 h
  IC50: 0.08 µM

## COc1cccc(F)c1[C@@H](F)CCC[C@@H](C)[C@H]1CC[C@H]2[C@H]3[C@H](CC[C@]12C)[C@@]1(C)CC[C@H](O)[C@H](O)[C@@H]1CC3(F)F (single isomer, unassigned) [Compound 215]
Homo sapiens, Huh-7, 16 h
  IC50: 3.57 µM

## COc1cccc(F)c1[C@H](F)CCC[C@@H](C)[C@H]1CC[C@H]2[C@H]3[C@H](CC[C@]12C)[C@@]1(C)CC[C@H](O)[C@H](O)[C@@H]1CC3(F)F (single isomer, unassigned) [Compound 216]
Homo sapiens, Huh-7, 16 h
  IC50: 2.65 µM

## COc1nc(C)ccc1C(O)CCC[C@@H](C)[C@H]1CC[C@H]2[C@H]3[C@H](CC[C@]12C)[C@@]1(C)CC[C@H](O)[C@H](O)[C@@H]1CC3(F)F (single isomer, unassigned) [Compound 217, (1R,3aS,3bS,5aR,6R,7S,9aR,9bS,11aR)-4,4-difluoro-1-[(2R,6S)-6-hydroxy-6-(2-methoxy-6-methylpyridin-3-yl)hexan-2-yl]-9a,11a-dimethylhexadecahydro-1H-cyclopenta[1,2-a]phenanthrene-6,7-diol or (1R,3aS,3bS,5aR,6R,7S,9aR,9bS,11aR)-4,4-difluoro-1-[(2R,6R)-6-hydroxy-6-(2-methoxy-6-methylpyridin-3-yl)hexan-2-yl]-9a,11a-dimethylhexadecahydro-1H-cyclopenta[1,2-a]phenanthrene-6,7-diol]
Homo sapiens, Huh-7, 16 h
  IC50: 0.21 µM

## COc1nc(C)ccc1C(O)CCC[C@@H](C)[C@H]1CC[C@H]2[C@H]3[C@H](CC[C@]12C)[C@@]1(C)CC[C@H](O)[C@H](O)[C@@H]1CC3(F)F (single isomer, unassigned) [Compound 218, (1R,3aS,3bS,5aR,6R,7S,9aR,9bS,11aR)-4,4-difluoro-1-[(2R,6R)-6-hydroxy-6-(2-methoxy-6-methylpyridin-3-yl)hexan-2-yl]-9a,11a-dimethylhexadecahydro-1H-cyclopenta[1,2-a]phenanthrene-6,7-diol or (1R,3aS,3bS,5aR,6R,7S,9aR,9bS,11aR)-4,4-difluoro-1-[(2R,6S)-6-hydroxy-6-(2-methoxy-6-methylpyridin-3-yl)hexan-2-yl]-9a,11a-dimethylhexadecahydro-1H-cyclopenta[1,2-a]phenanthrene-6,7-diol]
16 hours
  IC50: 0.141 µM
